These results are taken from PubChem BioAssay (NCI).

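Interpolation was linear, between the two tested concentrations surrounding the appropriate level; five concentrations were tested over 48 hours in 96-well plates. TGI marks complete inhibition of growth.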

Among the test systems are COLO 205 colon; LOX IMVI melanoma; MDA-MB-435; NCI-H23 lung; NCI-H522 lung; OVCAR-4 ovarian; PC-3 prostate; SF-268 CNS; SW-620 colon; U251 CNS.
Holding throughout (experiment): DTP human tumour cell line panel, 48 h

The term TGI denotes the concentration at which net growth stops. A lower TGI goes with greater sensitivity of the cells. Take `CC(C)(C)OC(=O)NCCCCC1NC(=O)[C@@H]2Cc3c([nH]c4ccccc34)C(C3CCCCC3)N2C1=O` (stereo not given in full): the concentration for total growth inhibition (TGI) was 55.1 µM with COLO 205 colon; over 100 µM in the assay on LOX IMVI melanoma; over 100 µM in the assay with MDA-MB-435; over 100 µM in the assay on NCI-H23 lung; over 100 µM with NCI-H522 lung; over 100 µM in the assay with OVCAR-4 ovarian. The TGI in the assay on PC-3 prostate, in the assay with SF-268 CNS, in the assay with SW-620 colon and in the assay with U251 CNS was over 100 µM in each case.
As for `O=c1c2cc([N+](=O)[O-])cnc2sn1-c1ccc([N+](=O)[O-])cc1`, the concentration for total growth inhibition (TGI) in the assay with COLO 205 colon was 37.3 µM; in the assay on LOX IMVI melanoma, 49.4 µM; in the assay on MDA-MB-435, over 100 µM; with NCI-H23 lung, over 100 µM; in the assay on NCI-H522 lung, 25.7 µM; in the assay with OVCAR-4 ovarian it was 85.7 µM. The TGI with PC-3 prostate is 83.8 µM; in the assay with SF-268 CNS, 67.6 µM; with SW-620 colon, over 100 µM; in the assay with U251 CNS, over 100 µM.
For the molecule `C1CN(c2nc3c(nnc4nc(N5CCOCC5)sc43)s2)CCO1`, the TGI with COLO 205 colon, in the assay with LOX IMVI melanoma, in the assay with MDA-MB-435, with NCI-H23 lung, in the assay with NCI-H522 lung and in the assay with OVCAR-4 ovarian was over 100 µM in each case. Moreover, the TGI in the assay on PC-3 prostate, in the assay with SF-268 CNS, in the assay on SW-620 colon and with U251 CNS was over 100 µM throughout.
Regarding `COC(=O)c1cc(=O)nc2sc3cccc(C)c3n12`, the total growth inhibition concentration (TGI) in the assay on COLO 205 colon is 29.8 µM; in the assay on LOX IMVI melanoma, 33.8 µM; with MDA-MB-435, over 100 µM; with NCI-H23 lung, over 100 µM; with NCI-H522 lung it was 48.3 µM; in the assay with OVCAR-4 ovarian it was over 100 µM. Also, the TGI in the assay on PC-3 prostate, in the assay on SF-268 CNS, with SW-620 colon and in the assay on U251 CNS was over 100 µM in each case.
Take `Nn1c(-c2ccccc2)nn(C(=O)c2ccccc2)c1=O`: the TGI in the assay with COLO 205 colon, in the assay with LOX IMVI melanoma, in the assay with MDA-MB-435, with NCI-H23 lung, in the assay with NCI-H522 lung and with OVCAR-4 ovarian was over 100 µM each time. In addition, the TGI in the assay on PC-3 prostate, in the assay on SF-268 CNS, with SW-620 colon and with U251 CNS was over 100 µM throughout.
As for `N#CCCC1C(C#N)C2(Cl)CC1(Cl)C(Cl)=C2Cl` (stereo not given), the total growth inhibition concentration (TGI) in the assay with COLO 205 colon, in the assay with LOX IMVI melanoma, in the assay with MDA-MB-435, in the assay with NCI-H23 lung, with NCI-H522 lung and with OVCAR-4 ovarian was over 10 µM throughout. The TGI with PC-3 prostate, with SF-268 CNS, with SW-620 colon and in the assay with U251 CNS was over 10 µM in each case.
With `CC(C)=CCc1c2c(c3occ(-c4ccc(O)cc4)c(=O)c3c1O)CC(C(C)(C)O)O2` (stereo not given), the total growth inhibition concentration (TGI) was 30 µM in the assay on COLO 205 colon; 30.4 µM in the assay on LOX IMVI melanoma; 30.5 µM in the assay on MDA-MB-435; 36 µM in the assay with NCI-H23 lung; 34 µM in the assay with NCI-H522 lung; 28.8 µM in the assay with OVCAR-4 ovarian. For the same molecule, the concentration for total growth inhibition (TGI) in the assay with PC-3 prostate was found to be 26.7 µM; with SF-268 CNS, 48.5 µM; in the assay on SW-620 colon, 64.4 µM; in the assay on U251 CNS it was 25.9 µM.
Take `O=c1[nH]c(Nc2cccc(CC(F)(F)F)c2)nc2nc[nH]c12`: the TGI with COLO 205 colon, in the assay with LOX IMVI melanoma, in the assay with MDA-MB-435, in the assay with NCI-H23 lung, with NCI-H522 lung and in the assay on OVCAR-4 ovarian was over 100 µM each time. Besides, the TGI in the assay with PC-3 prostate, in the assay on SF-268 CNS, in the assay with SW-620 colon and in the assay on U251 CNS was over 100 µM in each case.
`CCOC(=O)CSc1c(C(=O)OCC)c(=O)n(-c2ccccc2)c(=S)n1-c1ccccc1`: the TGI in the assay on COLO 205 colon, with LOX IMVI melanoma, in the assay on MDA-MB-435, in the assay on NCI-H23 lung, in the assay on NCI-H522 lung and in the assay on OVCAR-4 ovarian was over 100 µM in each case. The concentration for total growth inhibition (TGI) with PC-3 prostate, with SF-268 CNS, with SW-620 colon and in the assay with U251 CNS was over 100 µM in each case.
On to `C=CC1(C)CCC2C(=CCC3C2(C)CC(O)C(O)C3(C)COC2OC(C(=O)O)C(O)C(O)C2O)C1` (stereo not given) (tested in a mixture with another compound), for which the concentration for total growth inhibition (TGI) with COLO 205 colon, in the assay with LOX IMVI melanoma, with MDA-MB-435, in the assay with NCI-H23 lung, in the assay with NCI-H522 lung and with OVCAR-4 ovarian was over 100 µM throughout. In addition, the TGI with PC-3 prostate, with SF-268 CNS, in the assay with SW-620 colon and in the assay with U251 CNS was over 100 µM each time.
As for `Cc1cc(Cc2cc(C)c(N)cc2N)c(N)cc1N`, the TGI in the assay on COLO 205 colon, with LOX IMVI melanoma, in the assay with MDA-MB-435, in the assay with NCI-H23 lung, in the assay on NCI-H522 lung and in the assay on OVCAR-4 ovarian was over 100 µM in each case. Further, the total growth inhibition concentration (TGI) in the assay with PC-3 prostate, in the assay with SF-268 CNS, in the assay on SW-620 colon and in the assay on U251 CNS was over 100 µM in each case.
With `C=CCN1C[C@H](C)N([C@H](c2ccc(C(=O)NC(CC)CC)cc2)c2cccc(OC)c2)C[C@H]1C`, the concentration for total growth inhibition (TGI) with COLO 205 colon is 32.5 µM; in the assay with LOX IMVI melanoma, 58.6 µM; in the assay on MDA-MB-435 it was over 100 µM; with NCI-H23 lung, over 100 µM; in the assay on NCI-H522 lung it was 34.7 µM; in the assay on OVCAR-4 ovarian it was over 100 µM. For the same molecule, the total growth inhibition concentration (TGI) with PC-3 prostate, with SF-268 CNS, in the assay on SW-620 colon and in the assay on U251 CNS was over 100 µM each time.
Regarding `CN1CCc2cc(N)cc3c2C1Cc1ccc(O)c(O)c1-3` (stereo not given), the TGI in the assay with COLO 205 colon is over 100 µM; in the assay on LOX IMVI melanoma, 35 µM; in the assay with MDA-MB-435, over 100 µM; in the assay with NCI-H23 lung, over 100 µM; with NCI-H522 lung it was over 100 µM; with OVCAR-4 ovarian, over 100 µM. For the same molecule, the TGI in the assay with PC-3 prostate, in the assay with SF-268 CNS, in the assay with SW-620 colon and in the assay on U251 CNS was over 100 µM in each case.
For `COc1ccc2cc(NC(=O)N/N=C\c3ccc([N+](=O)[O-])cc3)ccc2c1`, the total growth inhibition concentration (TGI) in the assay with COLO 205 colon was over 100 µM; in the assay on LOX IMVI melanoma, over 100 µM; in the assay on MDA-MB-435, over 100 µM; with NCI-H23 lung it was 77.9 µM; in the assay with NCI-H522 lung, 51 µM; in the assay with OVCAR-4 ovarian it was 5.74 µM. The TGI with PC-3 prostate was over 100 µM; in the assay on SF-268 CNS, 55.4 µM; with SW-620 colon, over 100 µM; in the assay with U251 CNS, over 100 µM.
`O=C1C=CC(=O)c2c1ccc1c3ccccc3n(CCCCCCCCCCCCn3c4ccccc4c4ccc5c(c43)C(=O)C=CC5=O)c21`: the TGI in the assay with COLO 205 colon, in the assay with LOX IMVI melanoma, in the assay on MDA-MB-435, in the assay on NCI-H23 lung, in the assay with NCI-H522 lung and with OVCAR-4 ovarian was over 100 µM each time. Besides, the TGI in the assay on PC-3 prostate, in the assay on SF-268 CNS, with SW-620 colon and with U251 CNS was over 100 µM throughout.
Consider `CCCCCCCCCCCCCCNC(=O)CCC(NC(=O)c1ccc(N(C)Cc2cnc3nc(N)nc(N)c3n2)cc1)C(=O)NCCCCCCCCCCCCCC` (stereo not given), for which the concentration for total growth inhibition (TGI) is over 62.9 µM in the assay with COLO 205 colon; over 100 µM in the assay on LOX IMVI melanoma; 25.6 µM with MDA-MB-435; 20.8 µM in the assay with NCI-H23 lung; 32.4 µM with NCI-H522 lung; 40.9 µM in the assay with OVCAR-4 ovarian. For the same molecule, the TGI with PC-3 prostate was 22.5 µM; in the assay with SF-268 CNS, 22.4 µM; in the assay on SW-620 colon it was over 43 µM; in the assay with U251 CNS, 32.6 µM.
As to `COCO[C@@H]1C[C@H]2C(=O)Nc3ccccc3C(=O)N2C1`, the TGI in the assay on COLO 205 colon is over 100 µM; in the assay with LOX IMVI melanoma, over 100 µM; in the assay with MDA-MB-435, over 100 µM; with NCI-H23 lung, over 100 µM; in the assay with NCI-H522 lung it was 37.5 µM; in the assay on OVCAR-4 ovarian, over 100 µM. The TGI in the assay with PC-3 prostate, with SF-268 CNS, with SW-620 colon and in the assay on U251 CNS was over 100 µM in each case.
On to `C[C@]12CCC(O)CC1=CC[C@@H]1[C@@H]2CC[C@]2(C)C(=O)[C@H](n3ccnc3)C[C@@H]12` (stereo not given in full), for which the total growth inhibition concentration (TGI) is 71 µM with COLO 205 colon; over 100 µM in the assay on LOX IMVI melanoma; over 100 µM with MDA-MB-435; over 100 µM in the assay on NCI-H23 lung; over 100 µM in the assay on NCI-H522 lung; over 100 µM in the assay on OVCAR-4 ovarian. Besides, the concentration for total growth inhibition (TGI) with PC-3 prostate, with SF-268 CNS, in the assay on SW-620 colon and with U251 CNS was over 100 µM in each case.
